Earlier results as cited in US20100209363A1, “PERSONAL CLEANSING COMPOSITION INCLUDING A STRUCTURED SURFACTANT SYSTEM AND A SUN PROTECTION FACTOR COMPOSITION” (The Dial Corporation, priority 2009, published 2010).

Settings: in capric triglyceride

## CCCCC(CC)COC(=O)C(C#N)=C(c1ccccc1)c1ccccc1 (stereo not drawn) [octocrylene, 2-ethylhexyl 2-cyano-3,3-diphenylacrylate]
  miscibility with capric triglyceride: miscible

## COc1ccc(C(=O)CC(=O)c2ccc(C(C)(C)C)cc2)cc1 [avobenzone, 4-tert-butyl-4′-methoxydibenzoylmethane]
  concentration up to which miscible with capric triglyceride: up to 16 wt. %
  miscibility with capric triglyceride: miscible
